From patent US8440653B2, “3-substituted-1,4-diazepan-2-one melanocortin-5 receptor antagonists” (Mimetica Pty Ltd, priority 2008, dated 2013)
Read-outs that look alike come from different tables or passages of the source. Blank lines part the entries; values can stand above or below the compound they belong to.

Columns and labels:
rhesus monkey MC5R = target: T1, rhesus monkey MC5R (Macaca mulatta, UniProt A0A5F8AEA9); assay: MC5R radioligand binding assay, other species: rhesus monkey MC5R membranes; details: membranes of cells expressing cloned receptor
T1 construct: expressed in transfected cells
Description: (§1) Assays were performed in 96 well polypropylene plates. […] This was incubated for 1 hr at 37° C. […] Non-specific binding just under 5%.
(§2) Representative compounds of the present invention were tested for binding to MC5R from other species, as in described in Example 48, the results are listed in Table 4.

human MC5R (hMC5R) = target: T2, human MC5R (hMC5R) (Homo sapiens, UniProt P33032); assay: Human MC5R radioligand binding assay ([125I] NDP-MSH displacement)
T2 construct: purchased Perkin Elmer RBXMC5M400UA
Description: Assessments of compound binding to human MC5R (hMC5R) by displacement of an ^125I-labeled NDP-MSH receptor ligand peptide were performed essentially as described in the data sheets produced by Perkin Elmer to accompany their frozen hMC5R membranes (Perkin Elmer catalog number RBXMC5M400UA).
Na^125I (0.5 mCi, 17.4 Ci/mg) was added to 50 μL sodium phosphate (50 mM, pH 7.4) in an eppendorf tube precoated with IODOGEN. After incubation for 10 mins the phosphate buffer containing the iodine was added to NDP-MSH (10 ul at 1 mg/mL) in a separate eppendorf tube. This was incubated for a further 10 mins. The iodinated NDP-MSH was purified by HPLC on a Zorbax SB 300 column using solvent A: 0.05% TFA and solvent B: 90% acetonitrile 0.045% TFA with a linear gradient, 0-67% B over 60 mins. The ^125I NDP-MSH eluted at 52 min after the unlabeled starting material (48 min) and was counted and stored in the freezer.
Incubation buffer: 25 mM HEPES-KOH (pH 7.0), 1.5 mM CaCl2, 1 mM MgSO4, 0.1 M NaCl, 1 mM 1,10-phenanthroline, and 1 Complete™ protease inhibitor tablet/100 mL (Roche, catalog number 1873580)
Perkin Elmer frozen hMC5 membranes: catalog number RBXMC5M400UA, 0.4 mL/vial; 400 microassays/vial. 0.78 mg/mL protein concentration
Vials of frozen membranes were thawed rapidly immediately before use, diluted with binding buffer and vortexed. Resuspended membranes were kept on ice until they were added to the wells of the plate.
as §1
Representative compounds of the present invention were tested for binding in the hMC5R assay as in Example 46, as listed in Table 3. The compounds were tested as their trifluoroacetate or hydrochloride salts, or as their free bases.

human MC5R [1] = target: T3, human MC5R (Homo sapiens, UniProt P33032); assay: cAMP stimulation assay (agonism) in HEK 293 cells expressing human MC5R; type: cell-based; details: HEK 293 cells transiently expressing MC5R
T3 construct: host or cells: HEK 293, transient transfection
Description: (§3) HEK 293 cells transiently expressing the melanocortin MC5 receptor were suspended in stimulation buffer (Hanks buffered saline solution (HBSS), 0.1% bovine serum albumin, protease inhibitors and 0.5 mM 3-Isobutyl-1-methylxanthine) at 4×10^6 cells/mL. 5 μl of cells, plus the compounds/peptides as described below, were added to wells of a 384-well plate as soon as possible after resuspension.
To detect agonist activity, test compounds at varying concentrations were diluted in stimulation buffer at two times concentrate and 5 μl was added to wells containing cells. Positive control wells contained NDP-MSH or alpha-MSH alone (no compound) at two times concentrate
(§4) Basal level (of cAMP) control wells contained stimulation buffer only (no agonist or compounds). […] After incubation, 10 μl of lysis buffer (10% Tween 20, 1 M HEPES, 0.1% BSA, protease inhibitors, ddH2O) was added to all wells to be measured. […] 5 μl of diluted acceptor beads were added to each well to be measured, then the plate was incubated for 30 mins at room temperature, in the dark, with gentle shaking. […] Plates were read on an Envision plate reader (Perkin Elmer) after 1 hr and ˜16 hrs incubation. cAMP concentration in the cells was determined by the use of a ‘standard curve’ generated from the output of known cAMP concentrations as described below. […]

human MC3R = target: T4, human MC3R (Homo sapiens, UniProt P41968); assay: Human MC3R radioligand binding assay; details: [125I] NDP-MSH
T4 construct: expressed in transfected cells; host or cells: transfected mammalian cells, if the membranes were in-house
Description: as §1
(§5) Radioligand binding assays were carried out using commercial or in-house prepared hMC1R, hMC3R and hMC4R membranes and [^125I] NDP-MSH, as per hMC5R procedure in Example 46.
(§6) The homogenisation and ice incubation was repeated three times. The mixture was then centrifuged at 1260×g for 5 mins. […] This was centrifuged at 30,000×g for 90 mins at 4° C.

human MC4R = target: T5, human MC4R (Homo sapiens, UniProt P32245); assay: Human MC4R radioligand binding assay; details: [125I] NDP-MSH
T5 construct: expressed in transfected cells; host or cells: transfected mammalian cells, if the membranes were in-house
Description: as §1, §5, §6

human MC5R [2] = target: T3, human MC5R; assay: cAMP assay (antagonism of alpha-MSH) in HEK 293 cells expressing human MC5R; type: cell-based; details: HEK 293 cells transiently expressing MC5R; 10^−6 M alpha-MSH
Description: as §3
To detect antagonist activity, test compounds at varying concentrations were diluted in stimulation buffer at four times concentrate and 2.5 μl was added to wells containing cells. 2.5 μl of a four times required concentration of NDP-MSH or alpha-MSH was added to all wells containing compounds. […]
as §4

human MC1R = target: T6, human MC1R (Homo sapiens, UniProt Q01726); assay: Human MC1R radioligand binding assay; details: [125I] NDP-MSH
T6 construct: expressed in transfected cells; host or cells: transfected mammalian cells, if the membranes were in-house
Description: as §1, §5, §6

mouse MC5R = target: T7, mouse MC5R (Mus musculus, UniProt P41149); assay: MC5R radioligand binding assay, other species: mouse MC5R membranes; details: membranes from Euroscreen; read-out: mouse MC5R (membrane) IC50
T7 construct: purchased Euroscreen
Description: as §1, §2

sebum excretion = details: oral isotretinoin, after 8-12 weeks of therapy; cited from earlier work
[3] = Table 5, hMCR binding selectivity, read-out: human MC5R IC50
[4] = hMC5R membranes, [125I] NDP-MSH, tested as trifluoroacetate or hydrochloride salts or free bases, read-out: MC5R radioligand IC50

T2 sequence (P33032 whole entry): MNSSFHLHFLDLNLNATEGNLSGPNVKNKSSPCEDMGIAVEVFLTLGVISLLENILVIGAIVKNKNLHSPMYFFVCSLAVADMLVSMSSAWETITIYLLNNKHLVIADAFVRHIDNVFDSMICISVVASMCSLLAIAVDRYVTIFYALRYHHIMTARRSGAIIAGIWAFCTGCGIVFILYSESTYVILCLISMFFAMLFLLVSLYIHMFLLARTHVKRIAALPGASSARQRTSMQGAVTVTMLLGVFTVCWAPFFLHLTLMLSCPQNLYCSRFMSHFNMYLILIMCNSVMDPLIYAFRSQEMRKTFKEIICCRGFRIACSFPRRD
T3 sequence (P33032 whole entry): as above
T6 sequence (Q01726 whole entry): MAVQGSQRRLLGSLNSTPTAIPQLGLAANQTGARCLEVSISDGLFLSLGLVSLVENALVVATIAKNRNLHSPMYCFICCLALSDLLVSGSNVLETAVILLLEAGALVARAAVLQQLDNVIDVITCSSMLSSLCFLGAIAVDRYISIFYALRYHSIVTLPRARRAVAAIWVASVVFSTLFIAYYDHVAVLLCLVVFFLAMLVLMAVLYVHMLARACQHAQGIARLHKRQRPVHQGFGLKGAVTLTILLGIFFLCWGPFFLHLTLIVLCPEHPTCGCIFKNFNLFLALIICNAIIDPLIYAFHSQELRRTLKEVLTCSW
T4 sequence (P41968 whole entry): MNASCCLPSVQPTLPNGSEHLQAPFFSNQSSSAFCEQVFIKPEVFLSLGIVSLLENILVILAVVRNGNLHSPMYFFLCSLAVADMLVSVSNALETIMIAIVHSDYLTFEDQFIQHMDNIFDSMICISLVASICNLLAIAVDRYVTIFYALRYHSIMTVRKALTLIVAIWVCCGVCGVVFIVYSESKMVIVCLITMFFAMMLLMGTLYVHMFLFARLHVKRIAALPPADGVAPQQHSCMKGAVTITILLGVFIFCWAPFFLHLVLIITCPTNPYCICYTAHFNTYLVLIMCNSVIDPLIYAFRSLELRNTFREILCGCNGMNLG
T5 sequence (P32245 whole entry): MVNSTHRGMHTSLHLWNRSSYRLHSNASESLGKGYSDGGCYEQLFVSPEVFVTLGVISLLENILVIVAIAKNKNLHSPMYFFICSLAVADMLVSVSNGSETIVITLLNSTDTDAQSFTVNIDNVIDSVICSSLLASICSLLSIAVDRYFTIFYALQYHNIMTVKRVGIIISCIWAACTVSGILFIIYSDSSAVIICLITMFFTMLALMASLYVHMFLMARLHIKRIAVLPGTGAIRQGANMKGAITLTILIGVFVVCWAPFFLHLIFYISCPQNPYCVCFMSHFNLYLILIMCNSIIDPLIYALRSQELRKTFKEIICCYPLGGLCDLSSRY
T1 sequence (A0A5F8AEA9 1-325): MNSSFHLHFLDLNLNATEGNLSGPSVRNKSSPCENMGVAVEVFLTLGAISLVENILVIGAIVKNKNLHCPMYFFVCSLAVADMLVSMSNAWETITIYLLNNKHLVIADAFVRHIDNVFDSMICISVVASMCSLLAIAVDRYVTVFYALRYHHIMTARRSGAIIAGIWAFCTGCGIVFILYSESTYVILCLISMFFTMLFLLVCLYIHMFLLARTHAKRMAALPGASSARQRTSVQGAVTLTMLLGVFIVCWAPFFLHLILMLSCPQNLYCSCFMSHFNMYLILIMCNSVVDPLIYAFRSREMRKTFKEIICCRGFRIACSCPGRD
T7 sequence (P41149 whole entry): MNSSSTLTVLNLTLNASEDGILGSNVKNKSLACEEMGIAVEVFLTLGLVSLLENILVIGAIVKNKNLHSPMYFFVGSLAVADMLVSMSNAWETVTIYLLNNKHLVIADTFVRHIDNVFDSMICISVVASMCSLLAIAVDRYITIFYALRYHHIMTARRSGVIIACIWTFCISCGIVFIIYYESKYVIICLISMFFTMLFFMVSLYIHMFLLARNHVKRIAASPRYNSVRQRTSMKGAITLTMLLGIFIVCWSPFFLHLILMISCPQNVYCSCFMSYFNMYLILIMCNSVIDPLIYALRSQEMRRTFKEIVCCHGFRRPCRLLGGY

Structure (SMILES): CC[C@H](CN1CC[C@@H](CNC(=O)c2ccc3cc(Cl)ccc3c2)N[C@@H](CCC(C)C)C1=O)c1ccccc1 [Compound 17, 6-chloro-N-(((3S,5S)-3-isopentyl-2-oxo-1-((S)-2-phenylbutyl)-1,4-diazepan-5-yl)methyl)-2-naphthamide]
IC50 (rhesus monkey MC5R): 3.76 µM | IC50 (human MC5R (hMC5R); Table 4, membranes, read-out: human MC5R (membrane) IC50): 0.03 µM | IC50 (human MC5R (hMC5R); [3]): 0.03 µM | IC50 (human MC5R (hMC5R); [4]): < 0.1 µM | EC50 (human MC5R [1]): > 10 µM | IC50 (human MC3R): 3.05 µM | IC50 (human MC4R): > 10 µM | IC50 (human MC5R [2]): 6 µM | IC50 (human MC1R): > 10 µM | IC50 (mouse MC5R): 2.3 µM

Structure (SMILES): CC[C@H](CN1CC[C@@H](CNC(=O)c2ccc3cc(Cl)ccc3c2)N[C@@H](CCC(=O)N2CCCCC2)C1=O)c1ccccc1 [Compound 66, 6-chloro-N-(((3S,5S)-2-oxo-3-(3-oxo-3-(piperidin-1-yl)propyl)-1-((S)-2-phenylbutyl)-1,4-diazepan-5-yl)methyl)-2-naphthamide]
IC50 (human MC5R (hMC5R); [3]): 0.05 µM | IC50 (human MC5R (hMC5R); [4]): < 0.1 µM | EC50 (human MC5R [1]): > 10 µM | IC50 (human MC3R): 4.96 µM | IC50 (human MC4R): > 10 µM | IC50 (human MC5R [2]): 0.6 µM | IC50 (human MC1R): > 10 µM

Structure (SMILES): CC[C@H](CN1CC[C@@H](CNC(=O)c2ccc3cc(Cl)ccc3c2)N[C@@H](CCOCc2ccccc2)C1=O)c1ccccc1 [Compound 78, N-(((3S,5S)-3-(2-(benzyloxy)ethyl)-2-oxo-1-((S)-2-phenylbutyl)-1,4-diazepan-5-yl)methyl)-6-chloro-2-naphthamide]
IC50 (human MC5R (hMC5R); [4]): < 10 µM

Structure (SMILES): CC[C@H](CN1CC[C@@H](CNC(=O)c2ccc3cc(Cl)ccc3c2)N[C@@H](CC(C)C)C1=O)c1ccccc1 [Compound 79, 6-chloro-N-(((3S,5S)-3-isobutyl-2-oxo-1-((S)-2-phenylbutyl)-1,4-diazepan-5-yl)methyl)-2-naphthamide]
IC50 (human MC5R (hMC5R); [4]): < 10 µM

Structure (SMILES): CC1=C(/C=C/C(C)=C/C=C/C(C)=C\C(=O)O)C(C)(C)CCC1 [isotretinoin, 13-cis-retinoic acid]
reduction of sebum excretion (sebum excretion): up to 90%

Results, then the compound that gave them:

IC50 (human MC5R (hMC5R); [4]): < 0.1 µM
Structure (SMILES): CC[C@H](CN1CC[C@@H](CNC(=O)c2ccc3cc(Cl)ccc3c2)N[C@@H](CCCCO)C1=O)c1ccccc1 [Compound 76, 6-chloro-N-(((3S,5S)-3-(4-hydroxybutyl)-2-oxo-1-((S)-2-phenylbutyl)-1,4-diazepan-5-yl)methyl)-2-naphthamide]

IC50 (human MC5R (hMC5R); [4]): < 0.1 µM
Structure (SMILES): CC[C@H](CN1CC[C@@H](CNC(=O)c2ccc3cc(Cl)ccc3c2)N[C@@H](CCOC)C1=O)c1ccccc1 [Compound 77, 6-chloro-N-(((3S,5S)-3-(2-methoxyethyl)-2-oxo-1-((S)-2-phenylbutyl)-1,4-diazepan-5-yl)methyl)-2-naphthamide]

IC50 (human MC5R (hMC5R); [4]): < 10 µM
Structure (SMILES): CC[C@H](CN1CC[C@@H](CNC(=O)c2ccc(Cl)c(Cl)c2)N[C@@H](CCO)C1=O)c1ccccc1 [Compound 80, 3,4-dichloro-N-(((3S,5S)-3-(2-hydroxyethyl)-2-oxo-1-((S)-2-phenylbutyl)-1,4-diazepan-5-yl)methyl)benzamide]
